The test system of data set [1] is cancer cell lines A-375, DU145 and HCT-116. Description: Dose response curves, anti-proliferative activity on cancer cell lines. Type of data set: cell-based. The note with it: range over A-375, DU145, HCT-116; read-out: IC50 values, anti-proliferative activity on different types of cancer cell lines. The method, then: HCT-116, A-375 and DU-145 cells were plated at 8000 cells per well in 96-well transparent cell culture grade plates (Corning). Plates were kept in the humidified CO2 (5%) incubator overnight so that cells get attached to the bottom. […] Viable cells cleave the MTT tetrazolium ring into a dark blue formazan reaction product, whereas dead cells remain colorless. The MTT-containing medium was gently removed and DMSO was added in each well. After shaking, the plates were read in absorbance at 540 nm. All results are expressed as the average of three wells. Percent cytotoxicity was measured of each compound and represented in terms of its IC50 values.
Anti-proliferative activity on cancer cell lines A-375, DU145 and HCT-116: […]

The target of data set [2] is human recombinant SIRT1 (Homo sapiens, UniProt Q96EB6). Description: SIRT activity assay, SIRT1. The class given is biochemical. The method, then: FIG. 13A: % of SIRT1 and SIRT2 activity with controls, sodium suramine, a sirtuin inhibitor, and resveratrol a SIRT1 activator, and with UVI5008 at concentrations of 50 μM and 5 μM.
human recombinant SIRT1, sequence (Q96EB6 whole entry): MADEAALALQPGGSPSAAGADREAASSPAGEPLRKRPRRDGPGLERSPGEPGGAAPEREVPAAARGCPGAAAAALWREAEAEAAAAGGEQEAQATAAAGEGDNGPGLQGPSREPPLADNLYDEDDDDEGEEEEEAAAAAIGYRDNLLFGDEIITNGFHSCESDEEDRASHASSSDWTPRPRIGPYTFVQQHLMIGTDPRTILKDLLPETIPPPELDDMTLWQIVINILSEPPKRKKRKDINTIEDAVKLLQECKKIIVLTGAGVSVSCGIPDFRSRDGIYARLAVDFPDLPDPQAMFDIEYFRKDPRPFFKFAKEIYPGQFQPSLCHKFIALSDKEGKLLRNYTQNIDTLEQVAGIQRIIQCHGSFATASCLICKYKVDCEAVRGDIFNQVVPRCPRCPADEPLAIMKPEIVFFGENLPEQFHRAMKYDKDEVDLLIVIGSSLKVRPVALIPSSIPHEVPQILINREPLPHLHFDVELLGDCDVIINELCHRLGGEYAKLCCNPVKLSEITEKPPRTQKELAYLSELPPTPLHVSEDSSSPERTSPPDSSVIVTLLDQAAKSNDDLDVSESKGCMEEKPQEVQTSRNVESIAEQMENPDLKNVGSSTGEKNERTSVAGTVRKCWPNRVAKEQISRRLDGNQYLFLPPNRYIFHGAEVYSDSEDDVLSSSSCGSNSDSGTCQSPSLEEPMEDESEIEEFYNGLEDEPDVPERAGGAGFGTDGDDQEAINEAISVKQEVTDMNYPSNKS
The SIRT activity assay was performed using the human recombinant SIRT1 and SIRT2. SIRT1 (1 U/well) or SIRT2 (5 U/well), respectively, were incubated (37° C. for 1 h) with the SIRT1/2 substrate (corresponding to a p53 acetylated peptide) in the presence of NAD^+ and various concentrations of tested compounds (sirtuins activators or inhibitors). Activity was measured as fluorescence intensity. As internal controls, sodium suramin, a sirtuin inhibitor, and resveratrol, a SIRT1 activator, have been included. The fluorescence was measured on a fluorometric reader (Inphinite 200 TECAN) with excitation set at 360 nm and emission detection set at 460 nm

In data set [3] the test system is U937 cells. The data set can be described thus: Caspase 3 apoptotic assay in U937 cells. Type of data set: cell-based, human. The note with it: U937, 24 hrs. The method, then: (§1) FIG. 1: a) Cell cycle analysis of U937 cells treated for 30 hrs with the indicated compounds used at 1 and 5 μM; b) Caspase 3 apoptotic assay of the indicated compounds after 24 hrs of treatment in the U937 cells; c) Tubulin acetylation and p21 expression levels at 6 and 16 hrs after treatment with the indicated compounds; total tubulin expression levels are used for equal loading; d) Histone H3 acetylation and K9 H3 methylation expression levels at 6 and 16 hrs after treatment with the indicated compounds; total tubulin expression levels are used for equal loading; e) K9, K14, K18 histone H3 acetylation expression levels at 6 and 16 hrs after treatment with the indicated compounds; total ERKs expression levels are used for equal loading; f) HDAC1 enzymatic assay: IP-HDAC1 is incubated with the indicated inhibitors for 24 Hrs; activity is measured as ^3H-acetyl release; g) HDAC4 enzymatic assay: IP-HDAC4 is incubated with the indicated inhibitors for 24 hrs; activity is measured as ^3H-acetyl release.

Data set [4] has as its target HDAC4 (Homo sapiens, UniProt P56524). The data set can be described thus: HDAC4 enzymatic assay (IP-HDAC4, 3H-acetyl release). Type of data set: biochemical. The note with it: IP-HDAC4 incubated with inhibitor 24 hrs. The method, then: as §1
Data set [5] relates to RARβ2 promoter. Description: Methylation specific PCR for the RARβ gene. The note with it: 16 and 24 hrs. The class given is cell-based. The method, then: FIG. 2: a) Methylation specific PCR for the RARβ gene after 16 and 24 hrs of treatment with the indicated compounds; b) Methylation specific PCR for the p16 gene after 24 hrs of the indicated treatments. Samples are representative of real duplicates; c) p16 expression levels in U937 cells after 24 hrs with the indicated treatments; d) DNMT enzymatic in vitro assay carried out with 1.5 and 50 μM of the indicated compounds;
Cells were resuspended into 150 μl of TE (Tris 10 mM—EDTA 1 mM). 1.5 mL of lysis buffer (10 mM Tris pH 8.0—0.1 mM EDTA pH 8.0—0.5% SDS—20 μg/ml Rnase Dnase-free) were added, and after an incubation time of 1 h at 37° C., a second incubation at 56° C. with proteinase K at 100 μg/ml final concentration was performed over night. Proteins were removed by phenol-chloroform extraction. The genomic DNA was then precipitated with 0.2 vol. of 10M ammonium acetate and 2 vol. ethanol, and centrifuged at 13000 rpm for 5 min. The DNA pellet was washed with 70% ethanol, air dried and resuspended in nuclease free water at 4° C. on rocking table. The concentration was measured at 260 nm. […]
20 μg of genomic DNA (or in vitro methylated DNA) were mixed with 5.5 μl of 3M NaOH, the volume was adjusted to 55.5 μl with filtered water. […] The PCR product (10 μl+5 μl loading dye) was analyzed on 1.5% agarose gel.

The subject of data set [6] is TRAIL promoter. The data set can be described thus: Histone H3 acetylation at the TRAIL locus (Chip and qPCR) in U937 cells. The class given is cell-based, human. The note with it: U937, time course. The method, then: (§2) FIG. 5: a) Analysis of the histone H3 acetylation levels on the TRAIL promoter regulatory region and on the TRAIL gene first intron carried out Chip and qPCR in U937 cells after the indicated time course with UVI5008; the ‘NoAb’ represents the negative control; b) TRAIL mRNA expression after the indicated times of incubation with UVI5008; G6PDH levels have been used for equal loading; c) TRAIL protein expression levels measured by ELISA assay in U937 cells after 24 hrs treatment with UVI5008.
(In general: In qPCR the cycle at which signal appears reflects the starting amount.)

Data set [7] concerns TRAIL. The data set can be described thus: TRAIL expression (RT-PCR and ELISA) in U937 cells. Type of data set: cell-based, human. The note with it: protein after 24 hrs. The method, then:
as §2
(In general: ELISA stands for enzyme-linked immunosorbent assay.)

The test system of data set [8] is HCT-116 cells. Description: MTT cytotoxicity assay, HCT-116. The note with it: read-out: IC50 values, MTT cytotoxicity assay; HCT-116, 48 h. (In general: Formazan colour is commonly taken as a measure of viable cells.)

Structures are written as SMILES.

HDAC4, sequence (P56524 whole entry, species assumed): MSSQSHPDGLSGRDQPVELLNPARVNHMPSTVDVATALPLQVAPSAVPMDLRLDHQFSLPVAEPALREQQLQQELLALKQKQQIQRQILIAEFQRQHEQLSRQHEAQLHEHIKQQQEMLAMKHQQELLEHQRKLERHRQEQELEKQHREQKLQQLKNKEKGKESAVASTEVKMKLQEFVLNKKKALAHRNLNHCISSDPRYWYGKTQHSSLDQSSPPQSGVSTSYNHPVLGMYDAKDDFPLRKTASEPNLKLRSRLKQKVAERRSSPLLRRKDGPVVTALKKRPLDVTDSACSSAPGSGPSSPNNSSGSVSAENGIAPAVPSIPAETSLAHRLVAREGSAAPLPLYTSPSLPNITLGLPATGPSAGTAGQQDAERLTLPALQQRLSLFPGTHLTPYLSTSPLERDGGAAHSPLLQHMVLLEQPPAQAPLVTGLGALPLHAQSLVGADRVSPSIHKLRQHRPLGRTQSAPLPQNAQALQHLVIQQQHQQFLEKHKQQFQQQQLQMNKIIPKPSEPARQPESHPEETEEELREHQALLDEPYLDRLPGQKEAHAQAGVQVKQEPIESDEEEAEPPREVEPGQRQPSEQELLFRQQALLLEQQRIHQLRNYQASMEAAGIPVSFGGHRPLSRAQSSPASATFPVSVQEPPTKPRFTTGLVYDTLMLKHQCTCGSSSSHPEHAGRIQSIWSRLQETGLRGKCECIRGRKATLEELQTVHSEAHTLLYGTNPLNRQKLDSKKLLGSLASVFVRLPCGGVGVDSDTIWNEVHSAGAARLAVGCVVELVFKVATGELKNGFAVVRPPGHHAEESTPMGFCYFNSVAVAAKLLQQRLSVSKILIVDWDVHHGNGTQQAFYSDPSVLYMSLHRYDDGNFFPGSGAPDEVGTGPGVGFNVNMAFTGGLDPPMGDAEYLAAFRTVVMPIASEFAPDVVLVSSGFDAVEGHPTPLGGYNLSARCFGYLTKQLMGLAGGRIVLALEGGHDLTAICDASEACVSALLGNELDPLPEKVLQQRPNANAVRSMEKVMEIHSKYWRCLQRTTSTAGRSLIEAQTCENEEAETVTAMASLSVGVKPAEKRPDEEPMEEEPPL
HDAC4, sequence (O15379 whole entry partner, species assumed): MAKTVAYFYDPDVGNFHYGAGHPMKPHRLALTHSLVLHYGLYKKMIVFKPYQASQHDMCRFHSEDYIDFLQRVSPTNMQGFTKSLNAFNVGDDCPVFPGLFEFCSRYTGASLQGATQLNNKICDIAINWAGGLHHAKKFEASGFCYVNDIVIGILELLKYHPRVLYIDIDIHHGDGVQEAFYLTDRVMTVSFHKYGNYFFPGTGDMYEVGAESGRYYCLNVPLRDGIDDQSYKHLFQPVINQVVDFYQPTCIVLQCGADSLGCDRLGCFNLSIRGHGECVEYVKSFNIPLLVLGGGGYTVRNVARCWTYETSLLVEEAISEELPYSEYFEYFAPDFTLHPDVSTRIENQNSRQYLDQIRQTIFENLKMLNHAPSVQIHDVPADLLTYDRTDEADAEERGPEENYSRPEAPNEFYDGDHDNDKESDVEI

In the case of `O=C(NCCSSCCNC(=O)C(Cc1c[nH]c2ccc(Br)cc12)=NO)C(Cc1c[nH]c2ccc(Br)cc12)=NO` [UVI5008], the IC50 in data set [1] was 1500 to 3000 nM; in data set [2] it was 8900 nM; in data set [8], 1800 ± 100 nM. The “apoptogenic effect (caspase 3)” value in data set [3] is listed as “strongest apoptogenic effect”. Moreover, in data set [4], the “HDAC4 deacetylase activity inhibition” value is listed as “nearly completely blocked”. The “unmethylated RARβ2 (MSP)” value in data set [5] was “significant increase”. In data set [6], the “H3K9 acetylation of the chromatin at the TRAIL promoter” value is recorded as “rapid dramatic H3K9 acetylation”. Also, the “TRAIL expression at mRNA and protein levels” value in data set [7] was “increased expression”.

As usually defined, the IC50 is the concentration that inhibits the measured activity by half.
